Measured values reported in BindingDB's records for doi:10.1016/j.chembiol.2014.12.015 (University of Florida College of Medicine, 2015).

Experiments:
Assay in all cases: HDAC Activity Assays
[1] = molecular target: Histone deacetylase 2/Nuclear receptor corepressor 2 [395-498] (Homo sapiens, UniProt Q92769)
Description: (§1) The enzyme activities were initially tested in a serial dilution of each HDAC using the HDAC-Glo I/II reagents (Promega) according to the manufacturer s protocol. Luminescence was detected using the BMG POLARstar Omega microplate reader. A concentration of each HDAC within the linear response region was used for assaying inhibition of HDAC activity by UF010 and analogs. Each compound was tested in 10-point dose-response assay in triplicate.

[2] = molecular target: Histone deacetylase 1/Nuclear receptor corepressor 2 [395-498] (Homo sapiens, UniProt Q13547)
Description: as §1

Histone deacetylase 6 = molecular target: T1, Histone deacetylase 6 (Homo sapiens, UniProt Q9UBN7)
T1 sequence (Q9UBN7 whole entry): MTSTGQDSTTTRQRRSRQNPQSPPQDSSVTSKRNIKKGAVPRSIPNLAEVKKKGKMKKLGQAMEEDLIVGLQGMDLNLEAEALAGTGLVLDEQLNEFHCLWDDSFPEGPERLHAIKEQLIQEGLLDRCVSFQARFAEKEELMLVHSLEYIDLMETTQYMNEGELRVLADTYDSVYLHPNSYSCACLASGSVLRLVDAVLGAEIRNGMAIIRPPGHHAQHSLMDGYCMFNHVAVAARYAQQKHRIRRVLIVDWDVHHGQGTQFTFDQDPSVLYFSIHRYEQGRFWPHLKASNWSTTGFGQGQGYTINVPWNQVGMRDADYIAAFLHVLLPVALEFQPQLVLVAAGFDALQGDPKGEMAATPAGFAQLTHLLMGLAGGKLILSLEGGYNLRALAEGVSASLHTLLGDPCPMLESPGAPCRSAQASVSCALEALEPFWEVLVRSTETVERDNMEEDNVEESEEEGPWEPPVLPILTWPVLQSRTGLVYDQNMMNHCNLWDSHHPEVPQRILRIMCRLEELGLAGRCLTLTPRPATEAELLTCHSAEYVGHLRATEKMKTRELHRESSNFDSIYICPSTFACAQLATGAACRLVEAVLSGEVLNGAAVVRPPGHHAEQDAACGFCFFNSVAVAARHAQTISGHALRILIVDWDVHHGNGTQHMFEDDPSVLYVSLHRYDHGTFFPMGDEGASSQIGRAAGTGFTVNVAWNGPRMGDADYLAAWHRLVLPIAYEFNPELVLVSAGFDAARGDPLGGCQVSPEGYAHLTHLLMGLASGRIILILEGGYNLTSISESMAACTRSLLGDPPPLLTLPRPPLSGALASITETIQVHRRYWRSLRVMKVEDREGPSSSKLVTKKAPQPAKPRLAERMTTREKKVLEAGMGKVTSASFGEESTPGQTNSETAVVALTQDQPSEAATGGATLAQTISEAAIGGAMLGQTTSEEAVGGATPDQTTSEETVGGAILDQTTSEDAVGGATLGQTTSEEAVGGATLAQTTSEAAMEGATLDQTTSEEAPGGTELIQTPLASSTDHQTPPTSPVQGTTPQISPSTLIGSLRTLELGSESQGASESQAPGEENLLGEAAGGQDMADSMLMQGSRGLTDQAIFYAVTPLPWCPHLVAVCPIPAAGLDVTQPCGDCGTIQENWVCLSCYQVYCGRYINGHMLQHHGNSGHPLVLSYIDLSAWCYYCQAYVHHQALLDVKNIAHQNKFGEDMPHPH
Description: as §1

[3] = molecular target: Histone deacetylase 3/Nuclear receptor corepressor 2 [395-498] (Homo sapiens, UniProt O15379)
Description: as §1

Histone deacetylase 8 = molecular target: T2, Histone deacetylase 8 (Homo sapiens, UniProt Q9BY41)
T2 sequence (Q9BY41 whole entry): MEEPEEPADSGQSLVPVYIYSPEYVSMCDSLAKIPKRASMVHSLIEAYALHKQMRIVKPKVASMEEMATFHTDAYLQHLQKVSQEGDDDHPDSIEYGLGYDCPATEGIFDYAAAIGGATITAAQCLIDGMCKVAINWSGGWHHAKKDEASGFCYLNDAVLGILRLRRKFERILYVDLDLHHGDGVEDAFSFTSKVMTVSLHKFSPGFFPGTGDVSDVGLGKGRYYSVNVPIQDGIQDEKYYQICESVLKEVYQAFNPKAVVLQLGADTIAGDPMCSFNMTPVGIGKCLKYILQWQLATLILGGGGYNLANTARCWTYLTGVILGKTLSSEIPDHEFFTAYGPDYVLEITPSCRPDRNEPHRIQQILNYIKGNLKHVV
Description: as §1

Sequence of Histone deacetylase 1/Nuclear receptor corepressor 2 [395-498] (Q13547 whole entry): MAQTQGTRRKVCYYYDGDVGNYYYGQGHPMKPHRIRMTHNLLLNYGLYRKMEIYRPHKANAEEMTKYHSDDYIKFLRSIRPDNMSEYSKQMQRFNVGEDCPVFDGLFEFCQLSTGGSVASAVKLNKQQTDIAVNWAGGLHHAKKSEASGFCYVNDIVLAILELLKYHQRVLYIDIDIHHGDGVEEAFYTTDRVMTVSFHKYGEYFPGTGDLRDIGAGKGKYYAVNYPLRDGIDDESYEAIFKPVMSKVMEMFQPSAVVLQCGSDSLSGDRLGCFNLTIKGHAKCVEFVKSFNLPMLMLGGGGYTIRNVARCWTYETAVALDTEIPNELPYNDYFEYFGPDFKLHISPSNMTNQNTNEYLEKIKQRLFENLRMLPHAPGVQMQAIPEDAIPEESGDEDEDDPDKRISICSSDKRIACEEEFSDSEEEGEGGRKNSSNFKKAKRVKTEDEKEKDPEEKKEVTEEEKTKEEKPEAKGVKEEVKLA
Sequence of Histone deacetylase 1/Nuclear receptor corepressor 2 [395-498] (Q9Y618 395-498, further chain): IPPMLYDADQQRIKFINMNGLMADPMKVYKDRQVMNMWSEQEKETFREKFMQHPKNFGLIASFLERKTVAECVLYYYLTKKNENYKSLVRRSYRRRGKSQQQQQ
Sequence of Histone deacetylase 2/Nuclear receptor corepressor 2 [395-498] (Q92769 whole entry): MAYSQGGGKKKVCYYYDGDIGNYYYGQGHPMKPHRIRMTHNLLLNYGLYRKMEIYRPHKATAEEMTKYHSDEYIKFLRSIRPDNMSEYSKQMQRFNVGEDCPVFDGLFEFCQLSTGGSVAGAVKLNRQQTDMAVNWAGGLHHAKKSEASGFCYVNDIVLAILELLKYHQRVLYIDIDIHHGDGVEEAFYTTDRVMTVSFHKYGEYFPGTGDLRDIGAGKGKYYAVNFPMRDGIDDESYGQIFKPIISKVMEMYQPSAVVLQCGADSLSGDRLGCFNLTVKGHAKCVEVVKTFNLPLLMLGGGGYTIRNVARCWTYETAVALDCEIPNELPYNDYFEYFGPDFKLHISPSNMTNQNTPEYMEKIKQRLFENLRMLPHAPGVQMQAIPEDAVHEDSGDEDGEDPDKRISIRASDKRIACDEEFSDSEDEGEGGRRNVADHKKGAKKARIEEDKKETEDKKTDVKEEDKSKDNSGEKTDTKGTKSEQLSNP
Sequence of Histone deacetylase 2/Nuclear receptor corepressor 2 [395-498] (Q9Y618 395-498, further chain): as the sequence (Q9Y618 395-498, further chain) above
Sequence of Histone deacetylase 3/Nuclear receptor corepressor 2 [395-498] (O15379 whole entry): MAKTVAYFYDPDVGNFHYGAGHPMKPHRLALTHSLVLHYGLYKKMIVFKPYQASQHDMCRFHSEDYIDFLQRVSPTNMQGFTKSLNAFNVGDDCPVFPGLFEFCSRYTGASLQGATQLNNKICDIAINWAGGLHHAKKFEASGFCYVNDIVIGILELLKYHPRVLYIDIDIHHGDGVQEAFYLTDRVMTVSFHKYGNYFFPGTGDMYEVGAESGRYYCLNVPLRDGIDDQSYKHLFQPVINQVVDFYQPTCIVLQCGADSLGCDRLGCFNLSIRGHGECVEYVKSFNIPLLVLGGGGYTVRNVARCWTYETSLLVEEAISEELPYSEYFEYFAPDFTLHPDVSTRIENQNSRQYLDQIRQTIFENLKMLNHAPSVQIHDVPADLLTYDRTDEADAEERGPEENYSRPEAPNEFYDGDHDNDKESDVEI
Sequence of Histone deacetylase 3/Nuclear receptor corepressor 2 [395-498] (Q9Y618 395-498, further chain): as the sequence (Q9Y618 395-498, further chain) above

| Compound | IC50 [1] | IC50 [2] | IC50 (Histone deacetylase 6) | IC50 [3] | IC50 (Histone deacetylase 8) |
| --- | --- | --- | --- | --- | --- |
| CCCCNNC(=O)c1ccc(C(C)(C)C)cc1 [SR-3302] | 1.04 µM | 0.19 µM | 6.83 µM | 0.07 µM | 0.49 µM |
| CCCCNNC(=O)c1ccc(N(C)C)cc1 [SR-3208] | 0.88 µM | 0.23 µM | 9.57 µM | 0.12 µM | 0.72 µM |
| O=C(NNCCC1CCCC1)c1ccc(Br)cc1 [SR-3297] | 7.65 µM | 7.4 µM | – | 1.08 µM | – |
| CCCCNNC(=O)c1ccc(Cl)cc1 [SR-3210] | 3.8 µM | 3 µM | – | 2.5 µM | – |
| CCCCNNC(=O)c1ccc(Br)cc1 [UF010] | – | – | 9.09 µM | – | 2.83 µM |
| CCCCNNC(=O)c1ccc(OC)cc1 [SR-3206] | 2.52 µM | 1.91 µM | – | 0.43 µM | – |
| CN(C)c1ccc(C(=O)NNCC2CCCC2)cc1 [SR-3298] | 3.25 µM | 1.76 µM | – | 1.67 µM | – |
| O=C(NNCCCC1CCCC1)c1ccc(Br)cc1 [SR-3365] | > 50 µM | > 50 µM | – | > 50 µM | – |
| CCCCNNC(=O)c1ccc(F)cc1 [SR-3203] | 15.1 µM | 13.2 µM | – | 1.78 µM | – |
| CCCCCCNNC(=O)c1ccc(Br)cc1 [SR-3367] | 16.1 µM | 10.3 µM | 39.1 µM | 20 µM | – |
| O=C(NNCC1CCCC1)c1ccc(Br)cc1 [SR-3364] | 28.4 µM | 8.81 µM | – | 6.98 µM | – |
| CCCCNNC(=O)c1ccc(OC(F)(F)F)cc1 [SR-3204] | 9.09 µM | 8.86 µM | – | 1.35 µM | – |
| CCCCCNNC(=O)c1ccc(Br)cc1 [SR-3970] | 1.92 µM | 1.87 µM | 5.73 µM | 0.92 µM | 4.87 µM |
